# System: PC12 cells
# Assay: neurite outgrowth from PC12 cells measured by laser scanning line amplitudes
# Format: cell-based
# Conditions: NGF added, after six days, FIG. 5
# Text: The method of the invention was applied to the measurement of neurite outgrowth from PC12 cells. The neurites are much smaller than the cells and the laser beam, being only one micron in diameter in some cases. […] The extent of differentiation can be measured by considering the characteristic gaussian fit, multi-peaks ratio, sample width and number of inflections of the line amplitudes of the two populations. Any combination of these measurements from the line amplitudes may be used as a quantitative measure of differentiation.
# If the line-to-line spacing of the scan is sufficiently small it is also possible to produce a representation of each cell in 3D (FIG. 6). This provides confirmation of the ability of the method to characterise differentiation.
substance,measurement,value
nerve growth factor [NGF],differentiation (neurite outgrowth) of the cell population,the majority differentiated with neurite outgrowths

# Reference: US20030100024A1, “Method and apparatus for high throughput cell-based assays for screening and diagnostics” (priority 2000, published 2003)
